The values that follow come from ChEMBL document CHEMBL5512692, “Colloidal Aggregation Confounds Cell-Based Covid-19 Antiviral Screens” (J Med Chem, 2024).

The test has as its system SARS-CoV-2. Kind of test: Antiviral activity against SARS-CoV-2 pseudotyped lentivirus infected in HEK293 cells overexpressing EGFP-fused hACE2 coexpressing mCherry assessed as reduction in virus entry incubated for 40 mins by immunocytochemistry assay. The test is classed as functional, organism-based. To be noted: Severe acute respiratory syndrome coronavirus 2, HEK293, 40 min.

One may read the pEC50 as the negative decadic logarithm of the EC50, by convention in mol/L.

pEC50: −log10 of the molar value.

`C=C[C@@](C)(/C=C/c1ccc(O)cc1)CCC=C(C)C` [BAKUCHIOL]: the negative-log EC50 (pEC50) was 3.96.
In the case of `CC(C)=CCc1c(O)ccc(C(=O)/C=C/c2ccc(O)cc2)c1O` [ISOBAVACHALCONE] it was 4.29.
